Like-named read-outs stand apart in the source and are kept apart here.
Experiment: pre-clinical good laboratory practices toxicology, maximum tolerated dose
Design: species or system rats
Settings: rat, in vivo
Experimental: The starting dose is based on pre-clinical good laboratory practices toxicological results, according to the accepted standards. […] Thus, the maximum tolerated dose equivalent for this trial will be 1/10th of the HED or 1.8 rounded down to 1.5 mg/m^2/day with dose escalation in 1.5 mg/m^2 increments to 30 mg/m^2 or until dose limiting toxicity(s)(DLT) occur.

What does the source list for `COc1cc2c(cc1F)C(c1ccccc1Cl)=Nc1c(n[nH]c1C)N2` [compound of Formula I, 5-(2-chlorophenyl)-1,2-dihydro-7-fluoro-8-methoxy-3-methyl-pyrazolo[3,4-b][1,4]benzodiazepine]?
MTD (rat MTD 3 mg/kg/day times 6, read-out: HED (human equivalent dose) of the rat maximum tolerated dose): 18 mg/kg/day; MTD (rats, pre-clinical GLP toxicology, read-out: maximum tolerated dose in rats): 3 mg/kg/day

— patent US20070088023A1, “Method of administration for 5-(2-chlorophenyl)-1,2-dihydro-7-fluoro-8-methoxy-3-methyl-oyrazolo[1,4]benzodiazepine” (priority 2005, published 2007)
